Reference: article PMC6872167, “An odorant receptor from Anopheles gambiae that demonstrates enantioselectivity to the plant volatile, linalool” (PLoS ONE, 2019)

Key:
[1] = target: T1, Odorant receptor 29 (AgamOr29) (Anopheles gambiae, UniProt A0A1S4H074); experiment: two-electrode voltage clamp of Xenopus oocytes, concentration-response; type: cell-based
T1 construct: coding region, expressed with AgamOrco in Xenopus laevis oocytes; with AgamOrco
T1 sequence (A0A1S4H074 1-384): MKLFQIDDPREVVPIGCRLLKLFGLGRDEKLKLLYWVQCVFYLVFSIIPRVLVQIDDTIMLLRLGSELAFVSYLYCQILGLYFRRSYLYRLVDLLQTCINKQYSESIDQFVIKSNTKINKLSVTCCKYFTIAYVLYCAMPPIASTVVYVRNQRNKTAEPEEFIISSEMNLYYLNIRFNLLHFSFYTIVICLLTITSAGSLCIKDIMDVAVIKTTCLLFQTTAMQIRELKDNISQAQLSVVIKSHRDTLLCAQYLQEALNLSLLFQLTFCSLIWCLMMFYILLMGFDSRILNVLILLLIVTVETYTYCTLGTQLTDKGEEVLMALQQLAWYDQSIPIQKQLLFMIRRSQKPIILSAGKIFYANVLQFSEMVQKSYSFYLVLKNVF
T1 sequence (Q7QCC7 1-478 partner): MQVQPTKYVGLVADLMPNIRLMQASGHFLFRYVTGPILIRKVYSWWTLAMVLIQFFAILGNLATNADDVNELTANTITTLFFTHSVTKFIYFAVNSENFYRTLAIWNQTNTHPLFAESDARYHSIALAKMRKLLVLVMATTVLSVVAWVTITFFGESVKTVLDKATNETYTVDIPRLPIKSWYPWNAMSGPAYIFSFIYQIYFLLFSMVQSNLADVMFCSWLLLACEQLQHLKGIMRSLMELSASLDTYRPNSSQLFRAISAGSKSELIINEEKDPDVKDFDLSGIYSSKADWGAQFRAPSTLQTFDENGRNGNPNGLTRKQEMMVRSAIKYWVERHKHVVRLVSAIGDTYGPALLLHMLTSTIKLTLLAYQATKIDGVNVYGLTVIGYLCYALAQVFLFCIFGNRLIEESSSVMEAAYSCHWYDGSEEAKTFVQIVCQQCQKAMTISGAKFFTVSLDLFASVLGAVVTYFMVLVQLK
Excerpt: two-electrode voltage clamp of Xenopus oocytes, concentration-response on Odorant receptor 29 (AgamOr29) | to (R)-(–)-linalool (left)and (+/–) linalool (right).

[2] = target: T1, Odorant receptor 29 (AgamOr29); experiment: two-electrode voltage clamp of Xenopus oocytes, single concentration […]; type: cell-based

C=CC(C)(O)CCC=C(C)C (racemic) [(+/–) linalool]
EC50 [1]: ~5.7 µM

C=C[C@](C)(O)CCC=C(C)C [(R)-(–)-linalool]
EC50 [1]: ~8 µM

CCC(C)(O)CCCC(C)C (stereo not drawn) [tetrahydro linalool]
two-electrode voltage clamp of Xenopus oocytes, single concentration 10^-4 M [2]: tetrahydro linalool elicited a moderate, but repeatable response from AgamOr29, likely due to its structural similarity to linalool
